Results published in patent US20030171329A1, “Stable compositions comprising tezacitabine” (priority 2002, published 2003).

How the values were obtained:
human and rodent tumors = conditions: tumors of lung, colon, breast, prostate, pancreas, leukemias and lymphomas; cited from earlier work
[1] = Stability of FMdC solution 10 mg/mL in various buffer systems at 40° C. (Example 4, HPLC); format: physicochemical; conditions: for pH: 10 mg/mL
Protocol: In this study the stability of FMdC solution 10 mg/mL was studied in various buffer systems. FMdC solutions were made up and pH adjusted to target with sodium hydroxide. Solution samples were placed in stoppered glass vials and stored at 40° C. FMdC content was assessed at various times using the HPLC method described in Example 3 above.

[2] = Degradation products in HPLC chromatograms of degraded samples; format: physicochemical
From the text: The major degradation product of tezacitabine seen in HPLC chromatograms of degraded samples is cytosine. Based on this, but without limitation to any specific theory, the mechanism of degradation is believed to involve hydrolysis of the glycosidic bond between the […] ring and the sugar ring. This hydrolysis reaction is believed to occur rapidly at low pH but much less rapidly at high pH. The liberated sugar moiety is believed subsequently to undergo rapid degradation to a spectrum of products, one or more of which are highly acidic as well as being colored. The cytosine may also further degrade to acid-producing and/or color-producing species. The degradation, therefore, has a propensity to become autocatalytic, as the liberated acid species would tend to lower the pH, thus accelerating the degradation of previously undegraded tezacitabine molecules.
Degradation of tezacitabine can readily be monitored by the use of high pressure liquid chromatography (HPLC) methods which separate the drug from its degradation products and quantitate the amount of intact drug remaining in the solution. Typically such studies are performed by filling aliquots of various tezacitabine solutions into appropriate containers (e.g., stoppered glass vials or sealed ampoules) and storing these samples for various periods of time under various storage conditions. […]

[3] = human patients with solid tumors, Phase I clinical trials; cited from earlier work
[4] = Effects of pH and storage temperature on stability of FMdC solutions (Example 1, HPLC); format: physicochemical; conditions: for FMdC content: 1 mg/mL
Protocol: In this example the effects of pH and storage temperature on the stability of tezacitabine (FMdC) solutions was evaluated. FMdC solutions were made up at 1 mg/mL in aqueous sodium phosphate buffers at pH 1, 3, 5, 7 and 9, then filled in sealed glass ampoules and placed at 5°, 25°, and 45° C. FMdC content was assessed at various times using an HPLC method. The column was a PACK ODS column (YMC, Inc, Wilmington, Del.) with a mobile phase of 55/40/5 (v/v/v) 0.086M NaH2PO4 (pH 7)/0.05M 1-pentanesulfonic acid sodium salt/acetonitrile. Detection was by UV at 268 nm. Flow rate was 1.5 mL/min and injection volume was 10 μL.

pH ([1]; 20 mM TRIS, 0 mon): 9.42 | pH ([1]; 20 mM TRIS, 1 mon): 9.24 | pH ([1]; 20 mM TRIS, 2 mon): 9.05 | pH ([1]; 20 mM TRIS, 3 mon): 8.89 | pH ([1]; 20 mM TRIS, 4 mon): 8.58 | pH ([1]; 20 mM glycine, 0 mon): 9.60 | pH ([1]; 20 mM glycine, 1 mon): 9.32 | pH ([1]; 20 mM glycine, 2 mon): 9.24 | pH ([1]; 20 mM glycine, 3 mon): 9.11 | pH ([1]; 20 mM glycine, 4 mon): 8.86 | pH ([1]; 20 mM sodium phosphate, 0 mon): 9.36 | pH ([1]; 20 mM sodium phosphate, 1 mon): 8.32 | pH ([1]; 20 mM sodium phosphate, 2 mon): 7.76 | pH ([1]; 20 mM sodium phosphate, 3 mon): 7.72 | pH ([1]; 20 mM sodium phosphate, 4.7 mon): 4.65 | pH ([1]; 100 mM sodium phosphate, 0 mon): 9.44 | pH ([1]; 100 mM sodium phosphate, 1 mon): 9.14 | pH ([1]; 100 mM sodium phosphate, 2 mon): 8.69 | pH ([1]; 100 mM sodium phosphate, 3 mon): 8.47 | pH ([1]; 100 mM sodium phosphate, 4 mon): 8.18 | pH ([1]; 100 mM sodium phosphate, 6 mon): 7.80 | pH ([1]; 100 mM sodium phosphate, 9 mon): 7.14 | major degradation product [2]: cytosine | FMdC content ([4]; sodium phosphate pH 1, 5° C., 0 days): 100.0 % of initial | FMdC content ([4]; sodium phosphate pH 1, 5° C., 1 day): 93.2 % of initial | FMdC content ([4]; sodium phosphate pH 1, 5° C., 14 days): 70.0 % of initial | FMdC content ([4]; sodium phosphate pH 1, 5° C., 29 days): 47.1 % of initial | FMdC content ([4]; sodium phosphate pH 1, 25° C., 0 days): 100.0 % of initial | FMdC content ([4]; sodium phosphate pH 1, 25° C., 1 day): 45.7 % of initial | FMdC content ([4]; sodium phosphate pH 1, 25° C., 7 days): 4.5 % of initial | FMdC content ([4]; sodium phosphate pH 1, 45° C., 0 days): 100.0 % of initial | FMdC content ([4]; sodium phosphate pH 1, 45° C., 1 day): 3.9 % of initial | FMdC content ([4]; sodium phosphate pH 3, 5° C., 0 days): 100.0 % of initial | FMdC content ([4]; sodium phosphate pH 3, 5° C., 1 day): 89.4 % of initial | FMdC content ([4]; sodium phosphate pH 3, 5° C., 14 days): 73.3 % of initial | FMdC content ([4]; sodium phosphate pH 3, 5° C., 29 days): 51.7 % of initial | FMdC content ([4]; sodium phosphate pH 3, 25° C., 0 days): 100.0 % of initial | FMdC content ([4]; sodium phosphate pH 3, 25° C., 1 day): 50.5 % of initial | FMdC content ([4]; sodium phosphate pH 3, 25° C., 7 days): 4.7 % of initial | FMdC content ([4]; sodium phosphate pH 3, 45° C., 0 days): 100.0 % of initial | FMdC content ([4]; sodium phosphate pH 3, 45° C., 1 day): 4.4 % of initial | FMdC content ([4]; sodium phosphate pH 5, 5° C., 0 days): 100.0 % of initial | FMdC content ([4]; sodium phosphate pH 5, 5° C., 7 days): 95.8 % of initial | FMdC content ([4]; sodium phosphate pH 5, 5° C., 14 days): 98.2 % of initial | FMdC content ([4]; sodium phosphate pH 5, 5° C., 29 days): 93.5 % of initial | FMdC content ([4]; sodium phosphate pH 5, 25° C., 0 days): 100.0 % of initial | FMdC content ([4]; sodium phosphate pH 5, 25° C., 7 days): 73.0 % of initial | FMdC content ([4]; sodium phosphate pH 5, 25° C., 14 days): 56.3 % of initial | FMdC content ([4]; sodium phosphate pH 5, 25° C., 29 days): 28.6 % of initial | FMdC content ([4]; sodium phosphate pH 5, 45° C., 0 days): 100.0 % of initial | FMdC content ([4]; sodium phosphate pH 5, 45° C., 7 days): 2.5 % of initial | FMdC content ([4]; sodium phosphate pH 7, 5° C., 0 days): 100.0 % of initial | FMdC content ([4]; sodium phosphate pH 7, 5° C., 7 days): 100.8 % of initial | FMdC content ([4]; sodium phosphate pH 7, 5° C., 14 days): 100.6 % of initial | FMdC content ([4]; sodium phosphate pH 7, 5° C., 29 days): 99.8 % of initial | FMdC content ([4]; sodium phosphate pH 7, 25° C., 0 days): 100.0 % of initial | FMdC content ([4]; sodium phosphate pH 7, 25° C., 7 days): 100.4 % of initial | FMdC content ([4]; sodium phosphate pH 7, 25° C., 14 days): 99.4 % of initial | FMdC content ([4]; sodium phosphate pH 7, 25° C., 29 days): 98.8 % of initial | FMdC content ([4]; sodium phosphate pH 7, 45° C., 0 days): 100.0 % of initial | FMdC content ([4]; sodium phosphate pH 7, 45° C., 7 days): 96.5 % of initial | FMdC content ([4]; sodium phosphate pH 7, 45° C., 14 days): 92.0 % of initial | FMdC content ([4]; sodium phosphate pH 7, 45° C., 29 days): 82.3 % of initial | FMdC content ([4]; sodium phosphate pH 9, 5° C., 0 days): 100.0 % of initial | FMdC content ([4]; sodium phosphate pH 9, 5° C., 7 days): 100.4 % of initial | FMdC content ([4]; sodium phosphate pH 9, 5° C., 14 days): 100.8 % of initial | FMdC content ([4]; sodium phosphate pH 9, 5° C., 29 days): 100.4 % of initial | FMdC content ([4]; sodium phosphate pH 9, 25° C., 0 days): 100.0 % of initial | FMdC content ([4]; sodium phosphate pH 9, 25° C., 7 days): 100.5 % of initial | FMdC content ([4]; sodium phosphate pH 9, 25° C., 14 days): 99.4 % of initial | FMdC content ([4]; sodium phosphate pH 9, 25° C., 29 days): 100.4 % of initial | FMdC content ([4]; sodium phosphate pH 9, 45° C., 0 days): 100.0 % of initial | FMdC content ([4]; sodium phosphate pH 9, 45° C., 7 days): 100.1 % of initial | FMdC content ([4]; sodium phosphate pH 9, 45° C., 14 days): 98.7 % of initial | FMdC content ([4]; sodium phosphate pH 9, 45° C., 29 days): 96.5 % of initial | stability in words ([4]; low pH (pH 1 and 3), even under refrigeration): very unstable | stability in words ([4]; pH 9, compared with pH 1 to 7): most stable
Structure (SMILES): Nc1ccn([C@@H]2O[C@H](CO)[C@@H](O)/C2=C\F)c(=O)n1 [FMdC, (E)-2′-deoxy-2′-(fluoromethylene)cytidine]
antitumor activity in animal studies (human and rodent tumors): exhibited activity | comparison of buffers in stabilizing FMdC ([1]; same buffer concentrations (20 mM)): glycine and TRIS are superior to phosphate | tolerability [3]: well tolerated
